From US20090053152A1, “SKIN COSMETIC” (KAO Corporation, priority 2006, published 2009)
In brackets after ≈: the same amount, converted by molar mass. Like-named read-outs stand apart in the source and are kept apart here.

Columns and labels:
[1] = Solubility test in water or organic solvent; assay type: physicochemical; settings: room temperature, visually observed; for Solubility in Ethyl acetate: 0.1 g sample in 1 ml ethyl acetate; for solubility: thermodynamic from solid
Experimental: 0.1 g of each sample was weighed and 1 ml of water or an organic solvent was accurately added thereto. After agitating the mixture with a test tube mixer (VORTEX), it was allowed to stand at room temperature and the state was visually observed. Solubility was evaluated as “o”, when a sample was completely dissolved. Solubility was evaluated as “Δ”, when a sample was approximately half dissolved. Solubility was evaluated as “x”, when a sample was almost not dissolved. Propylbiphenol that was a starting material for each Preparation Example was also evaluated as Comparative Example 1.

[2] = system: B16 melanoma cells; assay: Melanogenesis inhibition test; assay type: cell-based; settings: for IC50: Mus musculus; for Melanogenesis inhibition rate (%, vs control): 72 hours culture, melanin per protein
Experimental: B16 melanoma cells were plated at 10^4 cells/well in a MEM medium containing 10 vol % fetal bovine serum in a 12-well plate and were precultured for 24 hours. After the preculture, the medium was replaced with a medium obtained by adding a predetermined concentration of the sample compound to the above medium to which is added 2 mmol/L of theophylline, and culture was carried out for 72 hours. […] Further, the cells were dissolved in a 1 mol/L aqueous sodium hydroxide solution containing 10 vol % dimethyl sulfoxide. The OD475 was measured and the value was used as an indicator of the amount of melanin. Thereafter, the amount of total protein in the solution was determined using Coomasie Plus Protein Assay Reagent Kit (manufactured by PIERCE) to calculate the amount of melanin per amount of protein. The melanogenesis inhibition rate (%) relative to a control was determined with a case where the sample compound was not added as the control.
Melanogenesis inhibition curves of the monoacetyl and diacetyl derivatives of propylbiphenol of Preparation Example 1 according to the present invention were made based on the results of the melanogenesis inhibition test (FIGS. 6 and 7). IC50 values, which is the concentration values supposed to inhibit 50% of melanogenesis, were determined from the inhibition curves.

[3] = 0.1 g sample in 1 ml water, read-out: Solubility in Water
[4] = B16, determined from melanogenesis inhibition curves, read-out: IC50 value (concentration supposed to inhibit 50% of melanogenesis)
[5] = addition concentration 10 μg/ml

Row | SMILES | Solubility in Ethyl acetate [1] | Solubility in Methanol ([1]; 0.1 g sample in 1 ml methanol) | Solubility in n-hexane ([1]; 0.1 g sample in 1 ml n-hexane) | solubility [1, 3] [mg/mL] | IC50 [2, 4] [µg/mL] | Melanogenesis inhibition rate (%, vs control) ([2]; addition concentration 1 μg/ml) [%] | Melanogenesis inhibition rate (%, vs control) ([2]; addition concentration 3 μg/ml) [%] | Melanogenesis inhibition rate (%, vs control) [2, 5] [%] | Melanogenesis inhibition rate (%, vs control) ([2]; addition concentration 30 μg/ml) [%] | solubility ([1]; organic solvent or mixture, 0.1 g sample in 1 ml methanol, read-out: Solubility in Methanol) [mg/mL] | solubility ([1]; organic solvent or mixture, 0.1 g sample in 1 ml n-hexane, read-out: Solubility in n-hexane) [mg/mL] | IC50 ([2]; B16, read-out: IC50 value (concentration supposed to inhibit 50% of melanogenesis)) [µg/mL]
1 | CCCc1ccc(OC(C)=O)c(-c2cc(CCC)ccc2OC(C)=O)c1 [Diacetyl derivative] | ∘ | ∘ | ∘ | < 25 | 6.5 (≈ 0.0183 mM) | −15.5 | −16.6 | 72.0 | 83.8 |  |  | 
2 | CCCc1ccc(OC(=O)CC)c(-c2cc(CCC)ccc2OC(=O)CC)c1 [Dipropionyl derivative] | ∘ | ∘ | ∘ | < 25 |  |  |  |  |  |  |  | 
3 | CCCc1ccc(O)c(-c2cc(CCC)ccc2OC(C)=O)c1 [Monoacetyl derivative] | ∘ | ∘ | ∘ | < 25 | 7 (≈ 0.0224 mM) | −11.6 | −9.8 | 100 |  |  |  | 
4 | CCCc1ccc(O)c(-c2cc(CCC)ccc2O)c1 [Propylbiphenol, 2,2′-dihydroxy-5,5′-di-n-propyl-biphenyl, reference compound] | ∘ |  |  | < 25 |  |  |  |  |  | 25 to 100 (≈ 92.5 to 370 mM) | < 25 | 4 (≈ 0.0148 mM)

Continued, in another order:

Row | Solubility in Ethyl acetate [1] | Solubility in Methanol ([1]; 0.1 g sample in 1 ml methanol) | Solubility in n-hexane ([1]; 0.1 g sample in 1 ml n-hexane) | solubility [1, 3] [mg/mL] | IC50 [2, 4] [µg/mL] | SMILES | Melanogenesis inhibition rate (%, vs control) ([2]; addition concentration 1 μg/ml) [%] | Melanogenesis inhibition rate (%, vs control) ([2]; addition concentration 3 μg/ml) [%] | Melanogenesis inhibition rate (%, vs control) [2, 5] [%] | Melanogenesis inhibition rate (%, vs control) ([2]; addition concentration 30 μg/ml) [%] | solubility ([1]; organic solvent or mixture, 0.1 g sample in 1 ml methanol, read-out: Solubility in Methanol) [mg/mL] | solubility ([1]; organic solvent or mixture, 0.1 g sample in 1 ml n-hexane, read-out: Solubility in n-hexane) [mg/mL] | IC50 ([2]; B16, read-out: IC50 value (concentration supposed to inhibit 50% of melanogenesis)) [µg/mL]
5 | ∘ | ∘ | ∘ | < 25 |  | CCCCCCCC(=O)Oc1ccc(CCC)cc1-c1cc(CCC)ccc1O [Monooctanoyl derivative] |  |  |  |  |  |  | 
6 |  |  |  |  | 20 (≈ 0.0735 mM) | OC[C@H]1O[C@@H](Oc2ccc(O)cc2)[C@H](O)[C@@H](O)[C@@H]1O [arbutin, reference compound] |  |  |  |  |  |  | 
